Assay results published in article PMC6034706 (ChemMedChem, 2017).
Where two headings read alike, the source gives them in different places.

How the values were obtained:
E. coli = assay: Cell viability assay, bacterial growth; assay type: cell-based; conditions: for relative percentage growth, E. coli, Amox (+): with 50 μM amoxicillin; for relative percentage growth, E. coli, Amox (+) / relative percentage growth, E. coli, Amox (−): relative to untreated cells; for growth inhibition activity on its own: wild-type E. coli, without amoxicillin; for relative percentage growth, E. coli, Amox (−): compound alone
VIM2 expressing E. coli = assay type: cell-based; conditions: for relative percentage growth, VIM2 expressing E. coli, Amox (+): with 50 μM amoxicillin; for relative percentage growth, VIM2 expressing E. coli, Amox (+) / relative percentage growth, VIM2 expressing E. coli, Amox (−): relative to untreated cells; for growth inhibition activity on its own: VIM2-expressing E. coli, without amoxicillin; for relative percentage growth, VIM2 expressing E. coli, Amox (−): compound alone
VIM2 [1] = molecular target: T1, VIM2 (Escherichia coli, UniProt Q5U7L7); assay type: biochemical, P. aeruginosa; conditions: 50 μM compound, 5 nM VIM-2, 10 μM nitrocefin, 30 mins
VIM2 [2] = molecular target: T1, VIM2; assay: biochemical; assay type: biochemical, P. aeruginosa; conditions: for IC50: 5 nM VIM-2, 10 μM nitrocefin
[3] = Plasma stability study, human plasma; assay type: in vitro ADME; conditions: 10 μM, 37 °C, pooled plasma
VIM-2 expressing E. coli = assay: Half maximal effective concentration; assay type: cell-based; conditions: in the presence of 50 μM amoxicillin
[4] = Plasma stability study, mouse plasma; assay type: in vitro ADME; conditions: 10 μM, 37 °C, pooled plasma
all eleven HDACs = conditions: earlier studies ref [10]; cited from earlier work
[5] = test system: human embryonic kidney HEK 293 cell lines; conditions: cited from earlier work
VIM2 [6] = molecular target: T1, VIM2; set-up: species or system P. aeruginosa; conditions: 6 and 12 μM inhibitor, 6 μM VIM-2, ICP-AES
[7] = test system: O=C(Cc1cccs1)N[C@@H]1C(=O)N2C(C(=O)O)=C(/C=C/c3ccc([N+](=O)[O-])cc3[N+](=O)[O-])CS[C@H]12; assay: purified protein, by the assay type; conditions: other: 50 mM potassium phosphate buffer, pH 7.0, room temperature
[8] = competitive-inhibition fit, nitrocefin substrate

Question: Which results are given for `CC1(C)S[C@@H]2[C@H](NC(=O)[C@H](N)c3ccc(O)cc3)C(=O)N2[C@H]1C(=O)O` [Amox, amoxicillin]?
Answer: inhibition at 50 µM (E. coli; Escherichia coli, read-out: growth inhibition by amoxicillin alone): > 96%; relative percentage growth, E. coli, Amox (+) (E. coli): 3.6%; relative percentage growth, VIM2 expressing E. coli, Amox (+) (VIM2 expressing E. coli): 77%; relative percentage growth, VIM2 expressing E. coli, Amox (+) (VIM2 expressing E. coli; listed as amoxicillin): ineffective

Question: Which results are given for `O=C(O)[C@H]1/C(=C/CO)O[C@@H]2CC(=O)N21` [Clavulanate]?
Answer: % Inhibition at 50 μM (VIM2 [1]): 15%; relative percentage growth, VIM2 expressing E. coli, Amox (+) (VIM2 expressing E. coli; listed as clavulanic acid): ineffective

Question: Which “growth inhibition activity on its own” value (E. coli) does the source give for `On1ccccc1=S` [Compound 2, 1-Hydroxypyridine-2-thione] here?
Answer: Its value is “over 89%”.

Question: What about the Ki (VIM2 [2]) of the same molecule?
Answer: The Ki was 217 nM.

Question: And the “growth inhibition activity on its own” value (VIM2 expressing E. coli)?
Answer: The value was “over 89%”.

Question: For `[Na+].[O-]n1ccccc1=S` [Compound 2b], which “% Inhibition at 50 μM” value (VIM2 [1]) is on record?
Answer: Its value is 93%.

Question: What about the IC50 (VIM2 [2]) of the same molecule?
Answer: The IC50 was 908 nM.

Question: What about the Ki (VIM2 [2]; [8]) of the same molecule?
Answer: The Ki was 217 nM.

Question: What does the source list for `O=C(O)c1cccc(=S)n1O` [Compound 3, 1-hydroxypyridine-2(1H)-thiones-6-carboxylic acid]?
Answer: relative percentage growth, E. coli, Amox (−) (E. coli): 77%; growth inhibition activity on its own (E. coli): moderate antibacterial activity; relative percentage growth, E. coli, Amox (+) (E. coli): 3.6%; % Inhibition at 50 μM (VIM2 [1]): 98%; Ki (VIM2 [2]): 0.013 nM; IC50 (VIM2 [2]): 270 nM; LE (ligand efficiency) (VIM2 [2]; LE = -1.38 log (Ki) / N, N = number of heavy atoms): 0.99; Ki (VIM2 [2]; [8]): 13 nM; Human Plasma t1/2 [3]: 11.7 min; EC50 (VIM-2 expressing E. coli): 110 nM; Mouse Plasma t1/2 [4]: 12.7 min; growth inhibition activity on its own (VIM2 expressing E. coli): moderate antibacterial activity; relative percentage growth, VIM2 expressing E. coli, Amox (−) (VIM2 expressing E. coli): 61%; relative percentage growth, VIM2 expressing E. coli, Amox (+) (VIM2 expressing E. coli): 3.2%; range of selectivity among HDACs (all eleven HDACs): ~5000 fold; CC50 [5]: 97400 nM

Question: For `O=C(O)CN(CCN(CC(=O)O)CC(=O)O)CC(=O)O` [EDTA], which “metal content of VIM-2 with increasing inhibitor concentration” value (VIM2 [6]) is on record?
Answer: The value was “inverse relationship”.

Question: What does the source list for `C[C@H](CS)C(=O)N1CCC[C@H]1C(=O)O` [L-Captopril]?
Answer: growth inhibition activity on its own (E. coli): moderate antibacterial activity; % Inhibition at 50 μM (VIM2 [1]): 98%; metal content of VIM-2 with increasing inhibitor concentration (VIM2 [6]): relatively unaffected; growth inhibition activity on its own (VIM2 expressing E. coli): moderate antibacterial activity

Question: With `O=C(CCCCCCC(=O)Nc1ccccc1)NO` [SAHA] as the molecule, how does the “relative percentage growth, E. coli, Amox (−)” value (E. coli) read?
Answer: Its value is 83%.

Question: And the “relative percentage growth, E. coli, Amox (+)” value (E. coli)?
Answer: The value was 3.6%.

Question: And the “relative percentage growth, VIM2 expressing E. coli, Amox (−)” value (VIM2 expressing E. coli)?
Answer: The value was 79%.

Question: What about the “relative percentage growth, VIM2 expressing E. coli, Amox (+)” value (VIM2 expressing E. coli) of the same molecule?
Answer: Its value is 60%.

Question: Which “% Inhibition at 50 μM” value (VIM2 [1]) does the source give for `C[C@]1(Cn2ccnn2)[C@H](C(=O)O)N2C(=O)C[C@H]2S1(=O)=O` [Tazobactam] here?
Answer: The value was 25%.

Question: For VIM-2 (Escherichia coli), which kcat [7] is on record?
Answer: Its kcat is 212 s⁻¹.
